On series [1], the source says: To study the iontophoretic property of the PANi membranes, standard Ag|AgCl electrode was used.
A short description of series [2]: Release through PANi membrane in Franz diffusion cell, no iontophoresis.
Series [3] is described as follows: Iontophoretic release through mouse skin with and without PANi membrane. The conditions noted are these: 0.3 mA/cm^2, EtOH:water 2:1 with 5% linoleic acid. It is filed as in vitro ADME. As for the experimental part:
Skin membranes: Male hairless mice, strain SKH1, 8 weeks old, were supplied by Charles River Laboratories (Wilmington, Mass.). Mice were euthanized by carbon dioxide asphyxiation. Their skins were excised and kept at −30° C. until used.
In the case of skin membranes, the plastic bags containing the mouse skins were first taken out of the freezer and put into a beaker filled with room temperature water until they were defrosted. The skin samples were then removed from the plastic bags and cleaned of adhering fat deposits. They were then cut into small pieces of appropriate size and carefully mounted on top of the diffusion cells and left to equilibrate for 1 hour.
[formula] […] Results and Discussion
Three sets of iontophoretic experiments were carried out. In the first set, as a control test, traditional Ag|AgCl electrodes were used for the mouse skin only without the PANi membrane. In the other two sets, with the PANi membrane and the mouse skin together, either PANi|AgCl configuration or the Ag|AgCl configuration as electrodes was tested.
Therefore, instead of using a simple aqueous solution, 5% linoleic acid was added to the doxycycline HCl solution consisting of ethanol and water (EtOH: water=2:1, v/v). The reason for using ethanol was to increase the solubility of linoleic acid in the water.

On series [4], the source says: For the permeation study of PANi membrane based on aqueous-organic partitioning system, doxycycline HCl suspension in light mineral oil was used as the donor solution so that its permeation results would be compared with those from a hydrophilized polyvinylidene fluoride (PVDF) membrane in a general way.
This is another data set of the same source.

Series [5] can be described thus: Iontophoretic release through mouse skin with and without PANi membrane. As to conditions: PANi membrane and mouse skin together, iontophoresis, aqueous donor without chemical enhancer. Format: in vitro ADME.
The conditions of series [6]: PVDF membrane, aqueous-organic partitioning system, ref [9], cited from earlier work.
[7] abbreviates: PANi + skin, Ag|AgCl electrodes.
Where [8] appears, read: PANi + skin, PANi|AgCl electrodes.

Structures can show the parent of a compound that is named as a salt. Where two headings read alike, the source gives them in different places.

For the compound `Cn1c(=O)c2c(ncn2C)n(C)c1=O` [Caffeine, caffeine], the “increase in flux vis-a-vis Table 1” value in series [1] is given as “about 30%”. Besides, in series [1], the release flux rate is on record as 305±79 μg/cm^2-hr. The “Q24 (24 hours accumulation in the receptor part)” value in series [2] (PANi membrane only) is on record as 573 ± 246 μg/cm^2. For the same compound, the Permeability in series [2] (PANi membrane only, aqueous donor (about 200 mg/10 ml caffeine, doxycycline HCl; about 400 mg/10 ml lidocaine HCl)) amounted to 3.33 ± 2.5 ×10⁻⁶ cm/s. Moreover, the Flux in series [2] (PANi membrane only, aqueous donor, steady state) turned out to be 240 ± 177 μg/cm^2 hr; in series [2] (caffeine donor concentration 5 mg/ml, PANi membrane), 66.6 μg/cm^2 h; in series [2] (caffeine donor concentration 10 mg/ml, PANi membrane), 136.2 μg/cm^2 h.

With `CCN(CC)CC(=O)Nc1c(C)cccc1C` [Lidocaine HCl, lidocaine hydrochloride], in series [1], the Experimental flux came out at 411 ± 144 μg/cm^2 hr; the “change of flux versus passive release (Table 1), in words” value is recorded as “small decrease in the flux”; the release flux rate was determined as 411±144 μg/cm^2-hr. Moreover, the “Q24 (24 hours accumulation in the receptor part)” value in series [2] (PANi membrane only) was 3330 ± 1760 μg/cm^2.

Regarding `C[C@H]1c2cccc(O)c2C(=O)C2=C(O)[C@]3(O)C(=O)C(C(N)=O)=C(O)[C@@H](N(C)C)[C@@H]3[C@@H](O)[C@@H]21.Cl` [Doxycycline HCl, doxycycline hydrochloride], in series [1], the Experimental flux is on record as 793 ± 111 μg/cm^2 hr; the “amount a skin patch can deliver” value is on record as “about 0.8 mg”; the “change of flux versus passive release (Table 1), in words” value is on record as “increased more than ten times”; the release flux rate stood at 793±111 μg/cm^2-hr. In series [3] (PANi + skin, Ag|AgCl electrode set), the “release, in words” value was “no release”. In series [3] (setting [7]), the Flux was 0 μg/cm^2 hr and the Q24 is given as 0 μg/cm^2. For the same compound, in series [3] (setting [8]), the Flux was 94.4 ± 81.2 μg/cm^2 hr, the Permeability worked out at 1.56 ± 1.33 ×10⁻⁶ cm/s and the Q24 came out at 2760 ± 3980 μg/cm^2. Also, in series [3] (Skin only, Ag|AgCl electrodes), the Flux was 48.5 ± 8.5 μg/cm^2 hr, the Permeability was 1.06 ± 0.186 ×10⁻⁶ cm/s and the Q24 was found to be 1020 ± 642 μg/cm^2. Besides, in series [4], the Flux is given as 31 ± 18 μg/cm^2 hr, the Permeability came to 0.83 ± 0.56 ×10⁻⁶ cm/s and the Q was found to be 80 ± 46 μg/cm^2. In addition, the “release, in words” value in series [5] is on record as “no release was achieved”. Besides, the Q in series [6] (24 hr) is reported as 1440 ± 240 μg/cm^2. In series [6], the Flux is 146 ± 27 μg/cm^2 hr and the Permeability is 8.3 ± 2.8 ×10⁻⁶ cm/s.

The values above are taken from patent US8036738B2, “Iontophoretic transdermal drug delivery system based on conductive polyaniline membrane” (priority 2006, dated 2011).
